From patent US8697839B2, “GQ protein competitive inhibitory polypeptides, preparation methods and uses thereof” (Third Military Medical University, priority 2008, dated 2014)
Marks after values point to notes of the source that are not given here.

Tests used:
[1] = system: myocardial hypertrophy in rats induced by norepinephrine; experiment: myocardial hypertrophy in rats induced by norepinephrine; format: in vivo, Wistar rats
Protocol: Thirty of Wistar rats were selected and assigned into five groups with 6 rats per group. The rats in the control group were administrated with 0.1% ascorbic acid-3 mg % potassium sodium tartrate-physiological saline; the rats in the model group were administrated with 0.1% ascorbic acid-6 mg % norepinephrine bitartrate-physiological saline; the rats in the three dosing groups were administrated with the pentadecapeptide, the heptacosapeptide, and the pantapentacontapeptide at 15 μg/kg respectively, while administration of norepinephrine. The dosing volume for each group was 33 ml/kg, and the administration was performed consecutively by ip, bid, for 20 days. At that time, the heart and left ventricle were weighed.

[2] = system: myocardial hypertrophy in mice induced by norepinephrine; experiment: myocardial hypertrophy in mice induced by norepinephrine; format: in vivo
Protocol: Fifty of the mice used in the experiment (purchased from Center for Experimental Animals, Third Military Medical University) was assigned into five groups with 10 mice per group. The mice in the control group were administrated with 0.1% ascorbic acid-3 mg % potassium sodium tartrate-physiological saline, The mice in the model group were administrated with 0.1% ascorbic acid-6 mg % norepinephrine bitartrate-physiological saline (equivalent to 1.5 mg/kg NE); The mice in three dosing groups were administrated with the pentadecapeptide, the heptacosapeptide, and the pantapentacontapeptide at 30 μg/kg respectively, while administration of 0.1% ascorbic acid—6 mg % norepinephrine bitartrate—physiological saline. The administration was performed consecutively by intraperitoneal injection (ip), twice a day (bid), for 15 days. The dosing volumes for each group were 50 ml/kg. Then, the animals were sacrificed by cervical dislocation. The heart was removed by thoracotomy, washed with the chilled physiological saline to get rid of blood stain, blotted with filter paper, weighed on a scale. The atriums and the right ventricle were carefully removed (with the interventricular septum left), and the left ventricle was weighed.

[3] = system: cultured cardiocytes of the rats (hypertrophy induced by NE); experiment: protein content in rat cardiocyte hypertrophy induced by norepinephrine (Lowry method); format: cell-based, Wistar rats
Excerpt: 1. Wistar rats 1-3 day postpartum (purchased from Center for Experimental Animal, Third Military Medical University) was used, sacrificed by cervical dislocation, and fixed on a dissecting table. The ventral skin of the corpus was disinfected with 2% iodine tincture and then 75% ethanol. The heart was removed, cutted into pieces of about 1-3 mm^3, digested repeatedly with a digestion solution containing 0.08% trypase, 0.02% EDTA, and 0.05% collogen. The cells were collected in DMEM containing 10% fetal bovine serum and cultured in an incubator at 37° C., 5% CO2.
2. The cardiocytes cultured for 48 h were subjected to replacement of the DMEM with a serum-free DMEM culture media and further cultured for 24 h before addition of a drug according to the following groups: • Normal control group; 10 μl of PBS was added. • Norepinephrine group; norepinephrine (NE, Serva Corporation, USA) was added at 1 μmol/L. • Polypeptide-dosed group: NE was added, while the corresponding polypeptide drug was added at 10 nmol/L.
(§1) 3. After addition of the drug, the cells were further cultured for 24 h and then the culture media was discarded. The culture was washed with PBS, followed by adding 0.5 ml of 5% trichloracetic acid per well, and left at 4° C. for 1 h. The precipitate was dissolved in 1 ml of 0.1 mol/L NaOH. The protein content was determined by Lowry method.

[4] = system: rats with spontaneous hypertension (SHR); experiment: myocardial remodeling and blood pressure in rats with spontaneous hypertension (SHR); format: in vivo, rat; conditions: for Systolic blood pressure of artery / EF (ejection fraction) / FS (shortening fraction) / IVST (intervertricular septum thickness) / LAD (left atrium sinistrum diameter) / LVEDD (left ventricular end diastolic diameter) / LVESD / PWT (left ventricular posterior wall thickness) / SV (stroke volume) / HI / HW / LVI / LVW / CSA (cross section area of the cardiocyte) / TDM (trans diameter of the cardiocyte): SHR, x ± s, n = 6; for EF (ejection fraction) / FS (shortening fraction) / IVST (intervertricular septum thickness) / LAD (left atrium sinistrum diameter) / LVEDD (left ventricular end diastolic diameter) / LVESD / PWT (left ventricular posterior wall thickness) / SV (stroke volume): echocardiography; for HI / HW / LVI / LVW: eight weeks
Protocol: 1. Thirty 13-week-old rats with spontaneous hypertension (SHR, purchased from Beijing Vital River Laboratory Animal Technology Co. Ltd., Beijing) were selected and randomly assigned into five groups with 6 rats per group:
SHR model group (Vehicle): 0.9% physiological saline, intraperitoneal injection at a dosage of 5 ml/kg, bid.
Positive control group (losartan): potassium losartan at a dosage of 6 mg/kg, intragastric administration, qd.
The pentadecapeptide group: administration of the pentadecapeptide at a dosage of 30 μg/kg by intraperitoneal injection, bid.
The heptacosapeptide group: administration of the heptacosapeptide at a dosage of 30 μg/kg by intraperitoneal injection, bid.
The pantapentacontapeptide group: administration of the pantapentacontapeptide at a dosage of 30 μg/kg by intraperitoneal injection, bid.
Six of INKY (Wistar-Kyoto) rats (purchased from Center for Experimental Animals, Third Military Medical University) were additionally selected as the normal control.
2. Intervention with the drug was performed consecutively for eight weeks (from Week 14 to Week 21). The body weights of all the tested rats were obtained once every two weeks, and the administration dosage was adjustedbased on body weights.

[5] = system: myocardial hypertrophy in rats induced by aortic coarctation; experiment: myocardial hypertrophy in rats induced by aortic coarctation; format: in vivo, Wistar rats; conditions: 15 μg/kg ip once a day, 3 weeks post operation; x ± SEM
Excerpt: Healthy male Wistar rats (purchased from Center for Experimental Animals, Third Military Medical University) were randomly assigned into the following groups: the sham-operation group, operation model group (SRS), and polypeptide-dosing group. Before the operation, animals were fasted overnight and given Ad libitum access to water, and then anesthetized with pentobarbital sodium and underwent celiotomy. The abdominal aorta was separated, and a […] needle (0.80 mm outer diameter) was fastened along the abdominal aorta above the right renal artery with a silk suture before the needle was quickly removed. Then, the abdomen was closed by suturation. The rats in the sham operation group were subjected to the same treatment as the aforementioned, except no ligation with silk suture. From the first day post operation, the rats in the sham operation control group and in the operation model group were administrated with physiological saline at 7.5 ml/kg, ip, once a day; the rats in the dosing group were administrated with the pentadecapeptide, heptacosapeptide, and pantapentacontapeptide at 15 μg/kg respectively, ip, once a day. Rats were reared routinely for 3 weeks and then sacrificed. The heart was removed by thoracotomy, washed with the chilled physiological saline to get rid of blood stain, blotted with filter paper. The heart and the left ventricle were weighed on a scale.

[6] = system: hypertrophic cardiocyte induced by angiotensin II; experiment: protein content in rat cardiocyte hypertrophy induced by angiotensin II (Lowry method); format: cell-based
Protocol: 1. The cardiocytes were cultured for 48 h in the same way as described above, then subjected to replacement of the DMEM with a serum-free DMEM culture media, and further cultured for 24 h before addition of a drug according to the following groups: normal control group: 10 μl of PBS was added; Ang II group; Ang II was added at 1 μmol/L; serial polypeptide-dosed group: Ang II was added, while each of the dodecapeptide, pentadecapeptide, heptacosapeptide, pantapentacontapeptide was added at 10 nmol/L.
as §1, with “2.” for “3.”

[7] = clinical dosage converted into the dosage in the mouse; cited from earlier work
[8] = polypeptide 15 μg/kg ip bid 20 days with norepinephrine, n = 6, x ± s
[9] = polypeptide 30 μg/kg ip bid 15 days with NE, x ± s
[10] = losartan 6 mg/kg intragastric qd

Question: For “Pentadecapeptide: SEQ ID NO: 9, obtained by deleting amino acid residues 1 to 40 at the N-terminal of SEQ ID NO: 1 (KDTILQLNLKEYNLV; listed as Homo sapiens)”, which “effect on the left ventricular index” value ([1]; 15 μg/kg ip bid 20 days with norepinephrine) is on record?
Answer: significantly decrease

Question: And the “HI (heart index)” value [1, 8]?
Answer: 3.580 ± 0.226 g/kg

Question: What about the “HW (heart weight)” value [1, 8] of the same molecule?
Answer: 0.673 ± 0.055 g

Question: And the “LVI (left ventricular index or myocardial hypertrophy index)” value [1, 8]?
Answer: 2.606 ± 0.154 g/kg

Question: And the “LVW (left ventricular weight)” value [1, 8]?
Answer: 0.490 ± 0.038 g

Question: And the “decrease of heart weight” value ([2]; 30 μg/kg ip bid 15 days with NE, P>0.05)?
Answer: 9.9%

Question: What about the “HI (heart index)” value [2, 9] of the same molecule?
Answer: 4.27 ± 0.42 mg/g

Question: What about the “HW (heart weight)” value [2, 9] of the same molecule?
Answer: 100.9 ± 12.8 mg

Question: And the “LVI (left ventricular index or myocardial hypertrophy index)” value [2, 9]?
Answer: 3.16 ± 0.39 mg/g

Question: And the “LVW (left ventricular weight)” value [2, 9]?
Answer: 74.7 ± 9.25 mg

Question: And the Protein content ([3]; polypeptide 10 nmol/L together with NE 1 μmol/L, 24 h, n = 6, x ± s)?
Answer: 104.3 ± 12.6 μg/10^5 cells

Question: What about the “effect on protein content in the hypertrophic cardiocyte induced by NE” value ([3]; polypeptide at 10 nmol/L) of the same molecule?
Answer: significantly decrease

Question: And the “Systolic blood pressure of artery” value ([4]; 0 w, polypeptide 30 μg/kg ip bid)?
Answer: 177.3 ± 6.42 mmHg

Question: What about the “Systolic blood pressure of artery” value ([4]; 2 w, polypeptide 30 μg/kg ip bid) of the same molecule?
Answer: 190.4 ± 7.75 mmHg

Question: What about the “Systolic blood pressure of artery” value ([4]; 4 w, polypeptide 30 μg/kg ip bid) of the same molecule?
Answer: 200.2 ± 4.13 mmHg

Question: What about the “Systolic blood pressure of artery” value ([4]; 6 w, polypeptide 30 μg/kg ip bid) of the same molecule?
Answer: 217.1 ± 8.82 mmHg

Question: And the “Systolic blood pressure of artery” value ([4]; 8 w, polypeptide 30 μg/kg ip bid)?
Answer: 224.1 ± 6.37 mmHg

Question: What about the “EF (ejection fraction)” value ([4]; polypeptide 30 μg/kg ip bid) of the same molecule?
Answer: 89.4 ± 3.90%

Question: And the “FS (shortening fraction)” value ([4]; polypeptide 30 μg/kg ip bid)?
Answer: 55.1 ± 4.33%

Question: What about the “IVST (intervertricular septum thickness)” value ([4]; polypeptide 30 μg/kg ip bid) of the same molecule?
Answer: 1.62 ± 0.20 mm

Question: And the “LAD (left atrium sinistrum diameter)” value ([4]; polypeptide 30 μg/kg ip bid)?
Answer: 3.39 ± 0.33 mm

Question: What about the “LVEDD (left ventricular end diastolic diameter)” value ([4]; polypeptide 30 μg/kg ip bid) of the same molecule?
Answer: 5.38 ± 0.31 mm

Question: What about the LVESD ([4]; polypeptide 30 μg/kg ip bid) of the same molecule?
Answer: 2.41 ± 0.35 mm

Question: What about the “PWT (left ventricular posterior wall thickness)” value ([4]; polypeptide 30 μg/kg ip bid) of the same molecule?
Answer: 1.96 ± 0.16 mm

Question: What about the “SV (stroke volume)” value ([4]; polypeptide 30 μg/kg ip bid) of the same molecule?
Answer: 0.32 ± 0.05 mL

Question: What about the HI ([4]; polypeptide 30 μg/kg ip bid) of the same molecule?
Answer: 3.44 ± 0.05 mg/g

Question: What about the HW ([4]; polypeptide 30 μg/kg ip bid) of the same molecule?
Answer: 1055 ± 30 mg

Question: And the LVI ([4]; polypeptide 30 μg/kg ip bid)?
Answer: 2.46 ± 0.04 mg/g

Question: And the LVW ([4]; polypeptide 30 μg/kg ip bid)?
Answer: 775 ± 28 mg

Question: What about the “CSA (cross section area of the cardiocyte)” value ([4]; polypeptide 30 μg/kg ip bid) of the same molecule?
Answer: 329 ± 24** μm^2

Question: What about the “TDM (trans diameter of the cardiocyte)” value ([4]; polypeptide 30 μg/kg ip bid) of the same molecule?
Answer: 14.88 ± 2.56 μm

Question: And the HI [5]?
Answer: 3.39 ± 0.10 mg/g

Question: What about the HW [5] of the same molecule?
Answer: 706 ± 30.8 mg

Question: What about the LVI [5] of the same molecule?
Answer: 2.01 ± 0.06 mg/g

Question: And the LVW [5]?
Answer: 418 ± 12.3 mg

Question: And the “effect on protein content in the cardiocyte in comparison with Ang II” value ([6]; polypeptide 10 nmol/L + Ang II)?
Answer: decrease the protein content in the cardiocyte in varying degrees

Question: What about the Protein content ([6]; polypeptide 10 nmol/L together with Ang II 1 μmol/L, 24 h, n = 6, x ± s) of the same molecule?
Answer: 130.6 ± 10.79 μg/10^5 cells

Question: Which results are given for CCCCc1nc(Cl)c(CO)n1Cc1ccc(-c2ccccc2-c2nn[nH]n2)cc1 [Losartan, potassium losartan]?
Answer: ratio of mouse LD50/routine dosage [7]: 349; Systolic blood pressure of artery ([4]; 0 w, losartan 6 mg/kg intragastric qd): 178.3 ± 2.24 mmHg; Systolic blood pressure of artery ([4]; 2 w, losartan 6 mg/kg intragastric qd): 165.1 ± 4.80 mmHg; Systolic blood pressure of artery ([4]; 4 w, losartan 6 mg/kg intragastric qd): 177.1 ± 8.27 mmHg; Systolic blood pressure of artery ([4]; 6 w, losartan 6 mg/kg intragastric qd): 178.3 ± 6.23 mmHg; Systolic blood pressure of artery ([4]; 8 w, losartan 6 mg/kg intragastric qd): 172.6 ± 4.82 mmHg; EF (ejection fraction) [4, 10]: 88.8 ± 2.62%; FS (shortening fraction) [4, 10]: 53.6 ± 3.57%; IVST (intervertricular septum thickness) [4, 10]: 1.87 ± 0.18 mm; LAD (left atrium sinistrum diameter) [4, 10]: 3.25 ± 0.23 mm; LVEDD (left ventricular end diastolic diameter) [4, 10]: 5.05 ± 0.42 mm; LVESD [4, 10]: 2.33 ± 0.18 mm; PWT (left ventricular posterior wall thickness) [4, 10]: 2.25 ± 0.21 mm; SV (stroke volume) [4, 10]: 0.21 ± 0.04 mL; HI [4, 10]: 3.48 ± 0.05 mg/g; HW [4, 10]: 1003 ± 16 mg; LVI [4, 10]: 2.74 ± 0.28 mg/g; LVW [4, 10]: 789 ± 88 mg; morphology of the cardiac muscle tissues, light microscope ([4]; losartan 6 mg/kg intragastric qd, FIG. 2): Pathological changes are somewhat improved; ultrastructure of the SHR cardiocyte, transmission electron microscope ([4]; losartan 6 mg/kg intragastric qd, FIG. 5): morphology of the cellular nucleus is essentially normal and somewhat irregular; CSA in comparison with the model group ([4]; losartan 6 mg/kg intragastric qd, P<0.01): significantly decreased; CSA (cross section area of the cardiocyte) [4, 10]: 335 ± 20** μm^2; TDM (trans diameter of the cardiocyte) [4, 10]: 13.83 ± 2.54 μm

Question: With C[C@H](CS)C(=O)N1CCC[C@H]1C(=O)O [captopril] as the molecule, how does the “ratio of mouse LD50/routine dosage” value [7] read?
Answer: 388
